From patent US20140378408A1, “NUCLEOSIDE 5'-PHOSPHOROTHIOATE ANALOGUES AND USES THEREOF” (BAR-ILAN UNIVERSITY, an Israeli University, priority 2012, published 2014)
Where two headings read alike, the source gives them in different places.

Key:
human NPP1 = target: T1, human NPP1 (Homo sapiens, UniProt P22413); test: Inhibition of NPP1 activity; format: biochemical; details: for type of inhibition: Dixon and Cornish-Bowden methods; for inhibition of pnp-TMP hydrolysis by NPP1: analogue and pnp-TMP 100 μM
T1 construct: made in house; host or cells: COS-7 cells (transfected; protein extract / cell lysate)
T1 sequence (P22413 1-925): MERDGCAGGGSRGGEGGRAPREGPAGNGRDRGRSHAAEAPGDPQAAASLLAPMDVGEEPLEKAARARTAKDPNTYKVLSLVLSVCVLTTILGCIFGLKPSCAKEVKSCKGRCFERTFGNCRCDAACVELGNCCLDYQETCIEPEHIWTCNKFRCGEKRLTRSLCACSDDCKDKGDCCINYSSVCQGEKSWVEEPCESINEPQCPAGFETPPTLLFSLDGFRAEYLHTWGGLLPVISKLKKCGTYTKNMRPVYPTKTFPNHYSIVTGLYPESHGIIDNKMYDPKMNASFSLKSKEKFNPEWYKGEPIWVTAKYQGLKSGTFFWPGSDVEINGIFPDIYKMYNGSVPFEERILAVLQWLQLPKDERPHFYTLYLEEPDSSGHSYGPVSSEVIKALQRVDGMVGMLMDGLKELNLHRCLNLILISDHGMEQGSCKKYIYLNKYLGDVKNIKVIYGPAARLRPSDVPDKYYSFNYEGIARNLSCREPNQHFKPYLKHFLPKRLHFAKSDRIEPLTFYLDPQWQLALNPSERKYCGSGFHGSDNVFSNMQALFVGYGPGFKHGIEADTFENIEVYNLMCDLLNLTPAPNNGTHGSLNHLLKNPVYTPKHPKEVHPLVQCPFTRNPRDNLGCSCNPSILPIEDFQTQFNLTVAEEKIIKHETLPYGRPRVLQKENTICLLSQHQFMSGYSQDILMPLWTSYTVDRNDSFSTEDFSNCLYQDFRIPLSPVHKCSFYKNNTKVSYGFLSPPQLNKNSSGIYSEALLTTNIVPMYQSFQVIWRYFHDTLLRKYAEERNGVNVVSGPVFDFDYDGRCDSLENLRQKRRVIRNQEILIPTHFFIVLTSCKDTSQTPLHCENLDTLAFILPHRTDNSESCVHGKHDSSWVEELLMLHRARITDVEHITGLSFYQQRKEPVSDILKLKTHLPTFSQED

human NTPDase8 [1] = target: T2, human NTPDase8 (Homo sapiens, UniProt Q5MY95); test: Hydrolysis by human NTPDase8; format: in vitro ADME; details: for Hydrolysis by NTPDase8: 100 μM, 1 h, activity with 100 μM ATP = 100%
T2 construct: made in house; host or cells: COS-7 cells (transfected; protein extract)
T2 sequence (Q5MY95 1-495): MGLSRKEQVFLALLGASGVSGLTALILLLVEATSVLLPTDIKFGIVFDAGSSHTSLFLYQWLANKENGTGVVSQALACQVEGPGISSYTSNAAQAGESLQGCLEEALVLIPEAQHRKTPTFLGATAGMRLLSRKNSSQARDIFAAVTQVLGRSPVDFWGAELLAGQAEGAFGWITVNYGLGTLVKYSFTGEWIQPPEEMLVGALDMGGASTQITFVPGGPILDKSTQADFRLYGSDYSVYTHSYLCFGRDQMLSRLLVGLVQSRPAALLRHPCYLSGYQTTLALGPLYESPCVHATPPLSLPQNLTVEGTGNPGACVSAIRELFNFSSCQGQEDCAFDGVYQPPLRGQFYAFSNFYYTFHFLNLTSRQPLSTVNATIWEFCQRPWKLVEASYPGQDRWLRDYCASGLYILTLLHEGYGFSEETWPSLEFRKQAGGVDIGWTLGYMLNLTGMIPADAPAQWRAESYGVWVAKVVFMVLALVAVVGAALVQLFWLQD

human P2Y2-R = target: T3, human P2Y2-R (Homo sapiens, UniProt P41231); test: [Ca^2+]i response of 1321N1 astrocytoma cells expressing P2Y2-R GFP; format: cell-based; details: for EC50: agonist, read-out: EC50 at the P2Y2 receptor; for activity at the P2Y2 receptor: isomer A of APPCCl2P-α-S at 100 μM
T3 construct: expressed in transfected cells; host or cells: 1321N1 astrocytoma cells
Method: GFP constructs of human P2Y2-R, P2Y1-R and P2Y11-R were stably expressed in 1321N1 astrocytoma cells, which lack endogenous expression of P2X- and P2Y-receptors. The respective cDNA of the receptor gene was cloned into a pEGFPN1 vector and after transfection, using FuGENE 6 Transfection Reagent (Roche Molecular Biochemicals, Mannheim, Germany), cells were selected with 0.5 mg/ml G418 (geneticine; Merck Chemicals, Darmstadt, Germany) and grown in DMEM supplemented with 10% serum (FCS), 100 U/ml penicillin and 100 U/ml streptomycin at 37° C. and 5% CO2. The expression and cell membrane localization of the respective P2Y receptors was confirmed through the analysis of the GFP fluorescence. The functionality of the expressed GFP-labeled receptor in cells was verified by recording a change of [Ca^2+]i after stimulation with the appropriate receptor agonist.
1321N1 astrocytoma cells transfected with the respective plasmid for P2Y-R-GFP expression plated on coverslips (22 mm diameter) and grown to approximately 80% density, were incubated with 2 μM fura 2/AM and 0.02% pluronic acid in Na-HBS buffer (Hepes buffered saline: 145 mM NaCl, 5.4 mM KCl, 1.8 mM CaCl2, 1 mM MgCl2, 25 mM glucose, 20 mM Hepes/Tris pH 7.4) for 30 min at 37° C. The cells were superfused (1 ml/min, 37° C.) with different concentrations of nucleotide in Na-HBS buffer. The nucleotide-induced change of [Ca^2+] was monitored by detecting the fluorescence intensities with excitations at 340 nm and 380 nm. Only GFP-labeled cells were analyzed. Microsoft Excel (Microsoft Corp., Redmond, Wash., USA) and SigmaPlot (SPSS Inc., Chicago, Ill., USA) were used to derive the concentration-response curves and EC50 values from the average response amplitudes obtained in at least three independent experiments (Ecke et al., 2006; Ecke et al., 2008). Only cells with a clear GFP-signal and with the typical calcium response kinetics upon agonist pulse application were included in the data analysis. The nucleotide induced change of [Ca^2+]i was monitored by detecting the respective emission intensity of fura 2/AM at 510 nm with 340 nm and 380 nm excitations (Ubl et al., 1998). The average maximal amplitude of the responses and the respective standard errors were calculated from ratio of the fura 2/AM. The GFP-tagged P2Y receptors are suitable for pharmacological and physiological studies, as previously reported (Tulapurkar et al., 2004; Tulapurkar et al., 2006; Zylberg et al., 2007).

human NTPDase8 [2] = target: T2, human NTPDase8; test: Inhibition of NTPDase8 activity; format: biochemical; details: for effect on human NTPDase8 activity: Table 5, ATP and analogue 100 μM, 100% activity = ATP alone; for inhibition of the hydrolysis of ATP by NTPDase8: analogue and ATP 100 μM

T3 sequence (P41231 whole entry): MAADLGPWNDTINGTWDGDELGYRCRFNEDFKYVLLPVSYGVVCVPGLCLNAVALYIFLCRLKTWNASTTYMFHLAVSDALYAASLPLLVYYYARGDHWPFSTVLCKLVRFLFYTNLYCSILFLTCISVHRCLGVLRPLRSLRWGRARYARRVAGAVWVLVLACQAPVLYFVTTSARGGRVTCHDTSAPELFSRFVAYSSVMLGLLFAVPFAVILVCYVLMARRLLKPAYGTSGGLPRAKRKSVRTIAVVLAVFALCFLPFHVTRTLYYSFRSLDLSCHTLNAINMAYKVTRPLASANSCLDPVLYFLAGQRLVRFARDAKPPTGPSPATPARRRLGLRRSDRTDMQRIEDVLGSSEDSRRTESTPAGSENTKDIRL

Nc1ncnc2c1ncn2[C@@H]1O[C@H](COP(=O)(O)CP(=O)(O)OP(O)(O)=S)[C@@H](O)[C@H]1O [APCPP-γ-S, adenosine 5′-[Pγ-thio]-α,β-methylenetriphosphate]
Ki (human NPP1): < 9000 nM
type of inhibition (human NPP1): mixed type inhibition, predominantly competitive
Ki (human NPP1; NPP1, text, read-out: Ki): 20 nM
Hydrolysis by NTPDase8 (human NTPDase8 [1]): 5.2 ± 0.2%
EC50 (human P2Y2-R): > 10000 nM
activity at the P2Y2 receptor (human P2Y2-R): neither agonist nor antagonist
effect on human NTPDase8 activity (human NTPDase8 [2]): 0.50 ± 0.02%

Nc1ncnc2c1ncn2[C@@H]1O[C@H](COP(O)(=S)OP(=O)(O)C(Cl)(Cl)P(=O)(O)O)[C@@H](O)[C@H]1O (single isomer, unassigned) [APPCCl2P-α-S, adenosine 5′-[Pα-thio]-β,γ-(dichloromethylene)triphosphate]
IC50 (human NPP1): 390 nM
Ki (human NPP1): 20 nM
type of inhibition (human NPP1): mixed type inhibition, predominantly competitive
EC50 (human P2Y2-R): > 10000 nM

Nc1ncnc2c1ncn2[C@@H]1O[C@H](COP(O)(=S)OP(=O)(O)CP(=O)(O)O)[C@@H](O)[C@H]1O (single isomer, unassigned; isomer b) [APPCP-α-S (isomer B), adenosine 5′-[Pα-thio]-β,γ-methylenetriphosphate]
Ki (human NPP1; pNP-TMP as substrate, Dixon plot, listed as APPCP-α-S B, read-out: Ki): 1300 ± 10 nM
Hydrolysis by NTPDase8 (human NTPDase8 [1]; listed as APPCP-α-S B): 5.3 ± 0.2%
effect on human NTPDase8 activity (human NTPDase8 [2]; listed as APPCP-α-S B): 0.5 ± 0.01%
inhibition of the hydrolysis of ATP by NTPDase8 (human NTPDase8 [2]): did not interfere

adenosine-5′-tetrathiobisphosphonate
inhibition of pnp-TMP hydrolysis by NPP1 (human NPP1): 4%
Relative hydrolysis by NTPDase8 (human NTPDase8 [1]): 7 ± 1 % ± SD of ADP or AP2A hydrolysis
inhibition of the hydrolysis of ATP by NTPDase8 (human NTPDase8 [2]): 49%

Nc1ncnc2c1ncn2[C@@H]1O[C@H](COP(O)(=S)OP(=O)(O)C(Cl)(Cl)P(=O)(O)O)[C@@H](O)[C@H]1O (single isomer, unassigned; isomer a) [APPCCl2P-α-S (isomer A), adenosine 5′-[Pα-thio]-β,γ-(dichloromethylene)triphosphate]
IC50 (human NPP1; NPP1, text, read-out: IC50): 600 nM
Ki (human NPP1; NPP1, text, read-out: Ki): 685 nM
Hydrolysis by NTPDase8 (human NTPDase8 [1]; listed as APPCCl2P-α-S A): 4.3 ± 0.1%
activity at the P2Y2 receptor (human P2Y2-R): no activity as agonist
effect on human NTPDase8 activity (human NTPDase8 [2]; listed as APPCCl2P-α-S A): 4.9 ± 0.2%
inhibition of the hydrolysis of ATP by NTPDase8 (human NTPDase8 [2]): did not interfere

Nc1ncnc2c1ncn2[C@@H]1O[C@H](COP(O)(=S)OP(=O)(O)CP(=O)(O)O)[C@@H](O)[C@H]1O (single isomer, unassigned; isomer a) [APPCP-α-S (isomer A), adenosine 5′-[Pα-thio]-β,γ-methylenetriphosphate]
Ki (human NPP1; dissociation constant for EIS complex, Cornish-Bowden plot, listed as APPCP-α-S A, read-out: Ki′): 4500 ± 3 nM
Ki (human NPP1; pNP-TMP as substrate, Dixon plot, listed as APPCP-α-S A, read-out: Ki): 4500 ± 30 nM
Hydrolysis by NTPDase8 (human NTPDase8 [1]; listed as APPCP-α-S A): 4.4%
effect on human NTPDase8 activity (human NTPDase8 [2]; listed as APPCP-α-S A): 7.0 ± 0.3%
inhibition of the hydrolysis of ATP by NTPDase8 (human NTPDase8 [2]): did not interfere

Nc1ncnc2c1ncn2[C@@H]1O[C@H](COP(=O)(O)OP(O)(O)=S)[C@@H](O)[C@H]1O [ADP-β-S, adenosine 5′-[β-thio]diphosphate, reference compound]
inhibition of pnp-TMP hydrolysis by NPP1 (human NPP1): 95%
Relative hydrolysis by NTPDase8 (human NTPDase8 [1]): 14 ± 0.1 % ± SD of ADP or AP2A hydrolysis
inhibition of the hydrolysis of ATP by NTPDase8 (human NTPDase8 [2]): less than 50%

Nc1ncnc2c1ncn2[C@@H]1O[C@H](COP(O)(=S)OP(=O)(O)C(Cl)(Cl)P(=O)(O)O)[C@@H](O)[C@H]1O (single isomer, unassigned; isomer b) [APPCCl2P-α-S (isomer B), adenosine 5′-[Pα-thio]-β,γ-(dichloromethylene)triphosphate]
Ki (human NPP1; pNP-TMP as substrate, Dixon plot, read-out: Ki): 15200 ± 100 nM
Hydrolysis by NTPDase8 (human NTPDase8 [1]; listed as APPCCl2P-α-S B): 5.3%
effect on human NTPDase8 activity (human NTPDase8 [2]; listed as APPCCl2P-α-S B): 1.5 ± 0.06%
inhibition of the hydrolysis of ATP by NTPDase8 (human NTPDase8 [2]): did not interfere

di-adenosine-5′,5″-tetrathiobisphosphonate
inhibition of pnp-TMP hydrolysis by NPP1 (human NPP1): ~60%
Relative hydrolysis by NTPDase8 (human NTPDase8 [1]): 3.0 ± 0.1 % ± SD of ADP or AP2A hydrolysis
inhibition of the hydrolysis of ATP by NTPDase8 (human NTPDase8 [2]): 5-20%
